Laboratory results: patent US8901295B2 (Institut National de la Sante et de la Recherche Medicale …, priority 2009, dated 2014)
Like-named read-outs stand apart in the source and are kept apart here.

Columns and labels:
[1] = target: Cyclophilin D (CypD) (Homo sapiens, UniProt P30405, K175I); assay: Cyclophilin PPIase enzymatic assay (chymotrypsin coupled), CypD; assay type: biochemical
Protocol: The protein was expressed in E. coli strain BL21(DE3). Bacteria were grown in LB medium at 37° C. and induced during 2 h with isopropyl-β-D-thiogalactopyranoside (IPTG) around OD 0.8. Cells were lysed by sonication in a buffer consisting of 50 mM Tris at pH 7.5, 2 mM EDTA and 2 mM β-mercaptoethanol (buffer A). The lysate was centrifuged at 40000 g for 30 min. The supernatant was loaded on a Q-Sepharose and S-Sepharose columns in series equilibrated with buffer A. The S-Sepharose column was washed with equilibrium buffer and bound proteins were eluted with a linear gradient from 0 to 1M NaCl.
(§1) The reaction was initiated by adding 20 μL of 3.2 mM peptide substrate (Suc-Ala-Ala-cis-Pro-Phe-pNA) in LiCl/TFE solution with rapid inversion. […] The final concentration of LiCl in the assay was 20 mM; TFE was present at a concentration of 4% (v/v). Absorbance readings were collected every 1 s by spectrophotometer. The inhibition assays of compounds were performed in the same manner as mentioned above. A 5 μL aliquot of the compounds in DMSO was added to the cyclophilin solution in the assay buffer. The assay was started by the addition of the substrate. Cyclosporine A was used as control in all measurement. The percentage inhibition of cyclophilin PPiase activity were calculated from slopes and values obtained represent an average of at least two independent measurements.

[2] = target: Cyclophilin A (CypA) (Homo sapiens (Human), UniProt P62937); assay: Cyclophilin PPIase enzymatic assay (chymotrypsin coupled), CypA; assay type: biochemical; details: for IC50: CypA
Cyclophilin A (CypA), sequence (P62937 whole entry): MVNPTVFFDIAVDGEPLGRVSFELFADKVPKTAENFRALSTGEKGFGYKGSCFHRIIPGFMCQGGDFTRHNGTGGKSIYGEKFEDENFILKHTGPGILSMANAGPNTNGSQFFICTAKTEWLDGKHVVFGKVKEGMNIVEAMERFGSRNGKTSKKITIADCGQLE
Protocol: (§2) Cyclophilin A, B protein carrying a hexahistidine tag (His-Tag) at the C-terminus, were expressed in Escherichia coli and purified. Briefly, cultures of C41(DE3) cells were grown at 37° C. for ˜1 h until the culture reached an optical density of 0.6 at 600 nm, and induced with 1 mM isopropyl β-D-thiogalactoside for 4 h at 37° C. or overnight at 22° C. for cylophilin A and cyclophilin B, respectively. Cell pellets (1 L) were resuspended in a lysis buffer (20 mM NaH2PO4 (pH 7.8), 300 mM NaCl, 7 mM β-mercaptoethanol, 1 mg/ml lysozyme, 0.1 U/μl Desoxyribonuclease and complete protease inhibitor tablets (Roche)). The sonicated cell lysates were clarified by centrifugation at 10 000 g for 45 min at 4° C., chromatographed on a Ni-NTA column and washed with buffer: (20 mM NaH2PO4 (pH7.8), 300 mM NaCl, 50 mM imidazole, 7 mM β-mercaptoethanol, 10% glycerol). The bound protein was eluted in 1 ml fractions with buffer: (20 mM NaH2PO4 (pH7.8), 300 mM NaCl, 250 mM imidazole, 7 mM β-mercaptoethanol, 10% glycerol) and monitored by the Bradford colorimetric assay. The purity of each cyclophilin was determined by Coomassie-stained SDS-PAGE analysis.
as §1

[3] = target: Cyclophilin B (CypB) (Homo sapiens (Human), UniProt P23284); assay: Cyclophilin PPIase enzymatic assay (chymotrypsin coupled), CypB; assay type: biochemical; details: for IC50: CypB
Cyclophilin B (CypB), sequence (P23284 34-216): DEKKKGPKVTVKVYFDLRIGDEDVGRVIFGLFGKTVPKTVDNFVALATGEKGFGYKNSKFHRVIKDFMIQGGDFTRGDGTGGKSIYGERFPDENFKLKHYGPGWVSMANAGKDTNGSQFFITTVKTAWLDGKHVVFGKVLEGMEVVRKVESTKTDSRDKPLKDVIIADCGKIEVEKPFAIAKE
Protocol: as §2, §1

[4] = test system: HCV genotype 1b bicistronic replicon in Huh7 cells; assay: Antiviral activity in the replicon model; assay type: cell-based; details: Hepatitis C virus, Huh-7, 72 h
Protocol: HCV replicon harboring cells were seeded at a low density of 5000 cells per well in 96-well plates. The cells were treated with increasing concentrations of the tested compounds in Dulbecco modified Eagle medium containing 10% fetal bovine serum and 1% DMSO without G418 and cultured for 3 days. Total RNA was extracted using the RNeasy 96 kit (Qiagen). […] HCV RNA levels were measured by means of […]. The results were normalized to GAPDH gene. Each data point represents the average of at least three replicates in cell culture. HCV RNA level reductions after treatment were assessed by comparing the level of HCV RNA in compound-treated cells to that of control cells treated with 1% DMSO.

[5] = Acute toxicity in mice; assay type: in vivo; details: female mice, 1, 10, 50 and 150 mg/kg, one intraperitonal injection
Protocol: The acute toxicity of F684 was evaluated in mice. In this study, female mice (n=3/group) were administered with the negative control (PBS) or F684 (1 mg/kg, 10 mg/kg, 50 mg/kg and 150 mg/kg of body weight dissolved in PBS), one time by intraperitonal injection. At the time of injection, animals were approximately 5 month old and body weights ranged from 27 to 33 g.

[6] = HCV genotype 1b replicon, Huh7 cells, 3 days, HCV RNA, read-out: EC50 replicon

Cyclophilin D (CypD), sequence (P30405 30-207 K175I limits assumed): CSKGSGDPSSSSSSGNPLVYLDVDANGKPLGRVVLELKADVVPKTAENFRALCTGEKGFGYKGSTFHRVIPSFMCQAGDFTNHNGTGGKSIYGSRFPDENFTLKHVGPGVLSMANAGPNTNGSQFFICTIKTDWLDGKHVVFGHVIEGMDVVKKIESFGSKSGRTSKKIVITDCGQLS

SMILES	inhibition at 100 µM [3] [%]	IC50 [3] [nM]	IC50 [2] [nM]	EC50 [4, 6] [µM]	IC50 [1] [nM]	also measured
Nc1ccc(CNC(=O)NCC(=O)N2CCOC(CN3C(=O)c4ccccc4C3=O)C2)cc1 (stereo not drawn) [Compound F554, 1-(4-aminobenzyl)-3-(2-(2-((1,3-dioxoisoindolin-2-yl)methyl)morpholino)-2-oxoethyl)urea]	70.9	24600				inhibition at 100 µM [1]: 20.9%; inhibition at 100 µM ([2]; activity test at 100 μM on CypA, read-out: Inhibition (%)): 67.2%
CCN(OCc1ccccc1)C(=O)CNC(=O)NCc1ccc(N)cc1 [Compound F607]		4800	9000			IC50 ([1]; CypD, read-out: CypD IC50): 30000 nM; Inhibition (%) ([3]; activity test at 100 μM on CypB): 95.3%
COc1ccccc1C1CCCN1C(=O)CNC(=O)NCc1ccc(N)cc1 (stereo not drawn) [Compound F609, 1-(4-aminobenzyl)-3-(2-(2-(2-methoxyphenyl)pyrrolidin-1-yl)-2-oxoethyl)urea]	101	1200	2800	20	11400	inhibition at 100 µM [2]: 100%
Nc1ccc(CNC(=O)NCC(=O)N2CCCC2c2cccc3ccccc23)cc1 (stereo not drawn) [Compound F671, 1-(4-aminobenzyl)-3-(2-(2-(naphthalen-1-yl)pyrrolidin-1-yl)-2-oxoethyl)urea]			1500	4.3	1400	
CSc1ccccc1C1CCCN1C(=O)CNC(=O)NCc1ccc(N)cc1 (stereo not drawn) [Compound F684, 1-(4-aminobenzyl)-3-(2-(2-(2-(methylthio)phenyl)pyrrolidin-1-yl)-2-oxoethyl)urea]		650	370		640	acute toxicity [5]: not acutely toxic; body weights, feed consumption, clinical observations or gross organ necropsy vs vehicle control [5]: No differences; survival [5]: All animals survived to scheduled sacrifice; EC50 ([4]; read-out: EC50 replicon (μM)): 0.8 µM
